Measurements from patent US20110028566A1, “COMPOSITIONS AND PRODUCTS CONTAINING CYCLOALIPHATIC DIOL ANTIMICROBIAL AGENTS AND METHODS OF USING THE COMPOSITIONS AND PRODUCTS” (EASTMAN CHEMICAL COMPANY, priority 2009, published 2011).

Tests used:
Assay in all cases: Microbial challenge testing in BPW
Assay type in all cases: cell-based
[1] = system: Aspergillus niger
Method: (§1) The microorganisms used in challenge tests are given in Table 3, designated as either ATCC (American Type Culture Collection) or wild type. These wild type organisms were problematic organisms previously isolated from chemical products. In the description for each organism, the bacteria are indicated as either GN (Gram negative) or GP (Gram positive).
(§2) All of the microorganisms were grown in Tryptose Soy Broth (TSB), DIFCO™ available from Becton, Dickinson and Company, containing 1% dextrose. Aspergillus niger and Candida albicans were incubated at 22° C.±2° C. for at least 96 hours. All bacteria were incubated at 35° C.±2° C. in a humidified incubator for at least 96 hours.
Aspergillus niger and Candida albicans were also grown on Sabouraud dextrose agar (SDA) at 22° C.±2° C. for 7 to 14 days or until full sporulation was achieved.
(§3) The following procedure was followed to determine the amount of each challenge material (inoculum broth) required to produce a 10^8 cfu/mL challenge, which is equivalent to a final test-sample microbial concentration of 10^5 to 10^6 cfu (colony-forming units)/mL.
(§4) Using a sterile serological pipette, 1 mL of the growth from each TSB culture was transferred into tubes containing 9 mL phosphate buffer (pH 7.2) and mixed thoroughly. This process was repeated to make serial 1:10 dilutions. Then 0.1 mL of each sample and dilution was inoculated onto agar plates to produce the equivalent of a further 1:10 dilution. C. albicans and A. niger were inoculated onto SDA and bacteria were inoculated onto Plate Count Agar (PCA), DIFCO™ available from Becton, Dickinson and Company. The 0.1 mL aliquots were evenly distributed on the plates using the spread-plate technique. The spread-plate technique is performed by spreading the aliquot over the entire plate surface using a sterile spreading rod while rotating the plate with a rotary auto-plater. After the inoculum was absorbed completely, each plate was inverted and incubated (fungi at 22° C.±2° C. and bacteria at 35° C.±2° C.).
(§5) After incubation for at least 48 hours, colonies that had developed on the agar plates were counted and recorded with the corresponding dilution. If counting had to be delayed temporarily, plates were refrigerated, preferably no more than 24 hours, until they could be counted. The number of cfu/mL was determined by multiplying the count by the dilution factor for that particular plate.
(§6) Turbidity in Nepholemetric Turbidity Units (NTU) was measured for each serial dilution using the HF-Micro 100 Model Turbidimeter. For each microorganism, the plate counts were compared to the turbidity readings.
Aspergillus niger cultures were harvested and spores dislodged from the SDA on which they were grown by rubbing the growth gently with a sterile inoculating loop. The spores were then mixed into the broth culture that had been incubated with a sterile magnetic stir bar to reduce pellicle formation. The spore-culture mixture was filtered repeatedly through sterile, non-absorbent cotton and harvested repeatedly, adjusting vegetative cells and spores to a level of 1.0×10^8. A hemocytometer was used to verify the final challenge concentration.
(§7) Control substrates (“broth alone”) were prepared for each microorganism separately in triplicate by adding 13.5 mL of BPW (pH 7.0) containing 1% (w/v) dextrose to each 20-mL glass tube; then adding 1.5 mL challenge material to produce a final concentration at time zero of 10^5 to 10^6 cfu/mL and a total volume of 15 mL.
Test sample substrates were prepared containing each test material (1,4-CHDM, etc) or combination of test materials at the concentrations shown in Tables 5 and 6.

[2] = system: Aeromonas sp.
Method: as §1, §2, §3, §4, §5, §6, §7
(§8) Test sample substrates were prepared containing each test material (1,4-CHDM, etc) or combination of test materials at the concentrations shown in Tables 5 and 6. Sample substrates were prepared in triplicate, except those substrates containing PE or CG which were prepared in duplicate. Substrates were prepared by adding BPW containing 1% (w/v) dextrose to each 20-mL glass tube, then adding the test material in the amount appropriate to achieve the desired weight/volume percent (g/100 mL) and to obtain a total volume of BPW with dextrose and test material of 13.5 mL. Then 1.5 mL challenge material was added to produce a final concentration at time zero of 10^5 to 10^6 cfu/mL of the respective organism and a total test sample substrate volume of 15 mL.
(§9) After mixing, all challenged substrates were incubated at 35° C.±2° C. for 14 days and then at ambient room temperature.

[3] = system: Escherichia coli
Method: as §1, §2, §3, §4, §5, §6, §7, §8, §9

[4] = system: Bacillus subtilis
Method: as §1, §2, §3, §4, §5, §6, §7, §8, §9

[5] = system: Streptococcus mutans
Method: as §1, §2, §3, §4, §5, §6, §7, §8, §9

[6] = system: Pseudomonas aeruginosa
Method: as §1, §2, §3, §4, §5, §6, §7, §8, §9

OCC1CCCC(CO)C1 (stereo not shown) [1,3-CHDM]
Grade code A. niger ([1]; 0.5%, 3 days incubation): 5
Grade code A. niger ([1]; 0.5%, 13 days incubation): 5
Grade code A. niger ([1]; 0.5%, 30 days incubation): 5
Grade code A. niger ([1]; 1.25%, 3 days incubation): 5
Grade code A. niger ([1]; 1.25%, 13 days incubation): 4
Grade code A. niger ([1]; 1.25%, 30 days incubation): 4
Grade code A. niger ([1]; 2.5%, 3 days incubation): 4
Grade code A. niger ([1]; 2.5%, 13 days incubation): 4
Grade code A. niger ([1]; 2.5%, 30 days incubation): 4
Grade code Aeromonas sp ([2]; 0.5%, 3 days incubation): 5 (More than 10,000 colonies estimated (thus >100,000 cfu/mL))
Grade code Aeromonas sp ([2]; 0.5%, 14 days incubation): 4 (1001 to 10,000 colonies (thus 10,000 cfu/mL to 100,000 cfu/mL))
Grade code Aeromonas sp ([2]; 0.5%, 30 days incubation): 4 (1001 to 10,000 colonies (thus 10,000 cfu/mL to 100,000 cfu/mL))
Grade code Aeromonas sp ([2]; 1.25%, 3 days incubation): 4 (1001 to 10,000 colonies (thus 10,000 cfu/mL to 100,000 cfu/mL))
Grade code Aeromonas sp ([2]; 1.25%, 14 days incubation): 4 (1001 to 10,000 colonies (thus 10,000 cfu/mL to 100,000 cfu/mL))
Grade code Aeromonas sp ([2]; 1.25%, 30 days incubation): 4 (1001 to 10,000 colonies (thus 10,000 cfu/mL to 100,000 cfu/mL))
Grade code E. coli ([3]; 0.5%, 3 days incubation): 5 (More than 10,000 colonies estimated (thus >100,000 cfu/mL))
Grade code E. coli ([3]; 0.5%, 14 days incubation): 5 (More than 10,000 colonies estimated (thus >100,000 cfu/mL))
Grade code E. coli ([3]; 0.5%, 30 days incubation): 5 (More than 10,000 colonies estimated (thus >100,000 cfu/mL))
Grade code E. coli ([3]; 1.25%, 3 days incubation): 5 (More than 10,000 colonies estimated (thus >100,000 cfu/mL))
Grade code E. coli ([3]; 1.25%, 14 days incubation): 4 (1001 to 10,000 colonies (thus 10,000 cfu/mL to 100,000 cfu/mL))
Grade code E. coli ([3]; 1.25%, 30 days incubation): 4 (1001 to 10,000 colonies (thus 10,000 cfu/mL to 100,000 cfu/mL))
Grade code E. coli ([3]; 2.5%, 3 days incubation): 5 (More than 10,000 colonies estimated (thus >100,000 cfu/mL))
Grade code E. coli ([3]; 2.5%, 14 days incubation): 4 (1001 to 10,000 colonies (thus 10,000 cfu/mL to 100,000 cfu/mL))
Grade code E. coli ([3]; 2.5%, 30 days incubation): 4 (1001 to 10,000 colonies (thus 10,000 cfu/mL to 100,000 cfu/mL))
Grade code B. subtilis ([4]; 0.5%, 3 days incubation): 4 (1001 to 10,000 colonies (thus 10,000 cfu/mL to 100,000 cfu/mL))
Grade code B. subtilis ([4]; 0.5%, 14 days incubation): 4 (1001 to 10,000 colonies (thus 10,000 cfu/mL to 100,000 cfu/mL))
Grade code B. subtilis ([4]; 0.5%, 30 days incubation): 4 (1001 to 10,000 colonies (thus 10,000 cfu/mL to 100,000 cfu/mL))
Grade code B. subtilis ([4]; 1.25%, 3 days incubation): 4 (1001 to 10,000 colonies (thus 10,000 cfu/mL to 100,000 cfu/mL))
Grade code B. subtilis ([4]; 1.25%, 14 days incubation): 4 (1001 to 10,000 colonies (thus 10,000 cfu/mL to 100,000 cfu/mL))
Grade code B. subtilis ([4]; 1.25%, 30 days incubation): 4 (1001 to 10,000 colonies (thus 10,000 cfu/mL to 100,000 cfu/mL))
Grade code B. subtilis ([4]; 2.5%, 3 days incubation): 4 (1001 to 10,000 colonies (thus 10,000 cfu/mL to 100,000 cfu/mL))
Grade code B. subtilis ([4]; 2.5%, 14 days incubation): 4 (1001 to 10,000 colonies (thus 10,000 cfu/mL to 100,000 cfu/mL))
Grade code B. subtilis ([4]; 2.5%, 30 days incubation): 4 (1001 to 10,000 colonies (thus 10,000 cfu/mL to 100,000 cfu/mL))
Grade code S. mutans ([5]; 0.5%, 3 days incubation): 5 (More than 10,000 colonies estimated (thus >100,000 cfu/mL))
Grade code S. mutans ([5]; 0.5%, 13 days incubation): 4 (1001 to 10,000 colonies (thus 10,000 cfu/mL to 100,000 cfu/mL))
Grade code S. mutans ([5]; 0.5%, 30 days incubation): 4 (1001 to 10,000 colonies (thus 10,000 cfu/mL to 100,000 cfu/mL))
Grade code S. mutans ([5]; 1.25%, 3 days incubation): 4 (1001 to 10,000 colonies (thus 10,000 cfu/mL to 100,000 cfu/mL))
Grade code S. mutans ([5]; 1.25%, 13 days incubation): 4 (1001 to 10,000 colonies (thus 10,000 cfu/mL to 100,000 cfu/mL))
Grade code S. mutans ([5]; 1.25%, 30 days incubation): 4 (1001 to 10,000 colonies (thus 10,000 cfu/mL to 100,000 cfu/mL))
Grade code S. mutans ([5]; 2.5%, 3 days incubation): 4 (1001 to 10,000 colonies (thus 10,000 cfu/mL to 100,000 cfu/mL))
Grade code S. mutans ([5]; 2.5%, 13 days incubation): 4 (1001 to 10,000 colonies (thus 10,000 cfu/mL to 100,000 cfu/mL))
Grade code S. mutans ([5]; 2.5%, 30 days incubation): 4 (1001 to 10,000 colonies (thus 10,000 cfu/mL to 100,000 cfu/mL))
Grade code P. aeruginosa ([6]; 0.5%, 3 days incubation): 5 (More than 10,000 colonies estimated (thus >100,000 cfu/mL))
Grade code P. aeruginosa ([6]; 0.5%, 13 days incubation): 5 (More than 10,000 colonies estimated (thus >100,000 cfu/mL))
Grade code P. aeruginosa ([6]; 0.5%, 30 days incubation): 5 (More than 10,000 colonies estimated (thus >100,000 cfu/mL))
Grade code P. aeruginosa ([6]; 1.25%, 3 days incubation): 4 (1001 to 10,000 colonies (thus 10,000 cfu/mL to 100,000 cfu/mL))
